Experiment [1] deals with Beta Secretase enzyme (BACE) (Homo sapiens, UniProt P56817). Kind of experiment: In vitro enzymatic BACE FRET (fluorescence resonance energy transfer) assay.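 Note: fluorescence read after 1 h with 50 nM quenched peptide substrate spanning the BACE cleavage site, in pH 4.2 acetate buffer containing 10% DMSO and nonionic detergent.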 The class given is biochemical. The note with it: BACE enzyme assay; read-out: BACE1 FRET assay (IC50).
In experiment [2] the test system is Aβ40 in conditioned medium of cells stably expressing Amyloid Precursor Protein (APP). Put plainly: In vitro BACE cell-based assay (Aβ40 in conditioned medium, sandwich ELISA).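 Note: compounds added as a dilution series, secreted peptide quantified by europium time-resolved fluorescence readout, potency fitted from percent of control versus compound concentration.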 The note with it: cell-based assay, read-out: HEK cell assay (IC50).
Where [3] appears, read: Homo sapiens, HEK293, HEK cells.

pIC50: −log10 of the molar value. Like-named read-outs stand apart in the source and are kept apart here.

As usually defined, the pIC50 is the IC50 on a negative log10 scale, so that one unit is a factor of ten.

Sequence of Beta Secretase enzyme (BACE) (P56817 46-501): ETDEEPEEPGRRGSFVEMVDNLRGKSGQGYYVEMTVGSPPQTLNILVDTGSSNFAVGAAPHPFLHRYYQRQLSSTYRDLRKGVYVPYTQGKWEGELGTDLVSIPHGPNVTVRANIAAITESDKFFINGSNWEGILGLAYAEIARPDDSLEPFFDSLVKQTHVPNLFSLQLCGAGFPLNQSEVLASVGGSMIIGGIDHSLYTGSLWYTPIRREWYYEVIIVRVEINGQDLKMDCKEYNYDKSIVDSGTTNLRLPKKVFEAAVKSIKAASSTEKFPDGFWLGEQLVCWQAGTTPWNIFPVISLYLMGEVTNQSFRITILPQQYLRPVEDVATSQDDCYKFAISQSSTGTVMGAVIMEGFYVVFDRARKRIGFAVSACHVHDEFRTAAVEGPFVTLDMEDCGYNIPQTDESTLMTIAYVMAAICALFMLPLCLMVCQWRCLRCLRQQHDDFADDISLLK

`COCC(=O)N[C@@H](Cc1ccc(F)cc1)[C@H](O)CN[C@H]1CC2(CCC2)Oc2ncc(CC(C)(C)C(F)(F)F)cc21` [compound 76]: the results for the pIC50 in experiment [1] and in experiment [2] (setting [3]) were 8.43 and 7.96, respectively.
For `CC(=O)N[C@@H](Cc1ccc(F)c(OC(F)(F)F)c1)[C@H](O)CN[C@H]1CC2(CCC2)Oc2ncc(CC(C)(C)F)cc21` [compound 77], in that order: 8.31 and 7.80.
For `COc1cc(C[C@H](NC(C)=O)[C@H](O)CN[C@H]2CC3(CCC3)Oc3ncc(CC(C)(C)C)cc32)ccc1F` [compound 78], the results for the pIC50 in experiment [1] and in experiment [2] (setting [3]) were 8.35 and 8.12, respectively.
As for `COCC(=O)N[C@@H](Cc1ccc(F)c(OC)c1)[C@H](O)CN[C@H]1CC2(CCC2)Oc2ncc(CC(C)(C)C)cc21` [compound 79], the pIC50 was 8.20 in experiment [1] and 7.83 in experiment [2] (setting [3]).
`COc1cc(C[C@H](NC(=O)C(F)(F)F)[C@H](O)CN[C@H]2CC3(CCC3)Oc3ncc(CC(C)(C)C)cc32)ccc1F` [compound 80]: the pIC50 in experiment [1] is 7.91; in experiment [2] (setting [3]), 6.90.
For `COCC(=O)N[C@@H](Cc1ccc(F)c(OC(F)(F)F)c1)[C@H](O)CN[C@H]1CC2(CCC2)Oc2ncc(CC(C)(C)C)cc21` [compound 81], in that order: 8.60 and 7.85.
For `CC(C)(C)Cc1cnc2c(c1)[C@@H](NC[C@@H](O)[C@H](Cc1ccc(F)c(OC(F)(F)F)c1)NC(=O)C(F)(F)F)CC1(CCC1)O2` [compound 82], in that order: 8.55 and 6.28.
For `CC(=O)Nc1cnc2c(c1)[C@@H](NC[C@@H](O)[C@H](Cc1ccc(F)cc1)NC(C)=O)CC1(CCC1)O2` [compound 83, N-((1S,2R)-3-(((4′S)-6′-(acetylamino)-3′,4′-dihydrospiro[cyclobutane-1,2′-pyrano[2,3-b]pyridin]-4′-yl)amino)-1-((4-fluorophenyl)methyl)-2-hydroxypropyl)acetamide], in that order: 6.23 and less than 5.00.
For the compound `CC(=O)N[C@@H](Cc1ccc(F)cc1)[C@H](O)CN[C@H]1CC2(CCC2)Oc2ncc(NC(=O)C(C)(C)C)cc21` [compound 84], the figures for the pIC50 in experiment [1] and in experiment [2] (setting [3]) were 5.31 and less than 5.00, respectively.
For `CCC(=O)Nc1cnc2c(c1)[C@@H](NC[C@@H](O)[C@H](Cc1ccc(F)cc1)NC(C)=O)CC1(CCC1)O2` [compound 85], in that order: 6.05 and less than 5.00.
For `CC(=O)N[C@@H](Cc1ccc(F)cc1)[C@H](O)CN[C@H]1CC2(CCC2)Oc2ncc(NC(=O)C(C)C)cc21` [compound 86], in that order: 5.13 and 5.01.
With `COCC(=O)N[C@@H](Cc1ccc2c(c1)OCO2)[C@H](O)CN[C@H]1CC2(CCC2)Oc2ncc(CC(C)(C)C#N)cc21` [compound 87], the pIC50 is 6.93 in experiment [1] and 7.08 in experiment [2] (setting [3]).
In the case of `CC(=O)N[C@@H](Cc1ccc2c(c1)OCO2)[C@H](O)CN[C@H]1CC2(CCC2)Oc2ncc(CC(C)(C)C#N)cc21` [compound 88], the results for the pIC50 in experiment [1] and in experiment [2] (setting [3]) were 7.31 and 7.79, respectively.
`COCC(=O)N[C@@H](Cc1cc(F)cc(F)c1)[C@H](O)CN[C@H]1CC2(CCCC2)C(=O)c2ccc(CC(C)(C)C)cc21` [compound 89]: the values for the pIC50 in experiment [1] and in experiment [2] (setting [3]) were 8.31 and 7.23, respectively.
For `CC(=O)N[C@@H](Cc1cc(F)cc(F)c1)[C@H](O)CN[C@H]1CC2(CCCC2)C(=O)c2ccc(CC(C)(C)C)cc21` [compound 90], in that order: 7.99 and 7.13.
For `CC(=O)N[C@@H](Cc1cc(F)cc(F)c1)[C@H](O)CN[C@H]1CC2(CCC2)Oc2ncc(CC(C)(C)C#N)cc21` [compound 91], in that order: 8.35 and 8.19.
Take `COCC(=O)N[C@@H](Cc1cc(F)cc(F)c1)[C@H](O)CN[C@H]1CC2(CCC2)Oc2ncc(CC(C)(C)C#N)cc21` [compound 92]: the results for the pIC50 in experiment [1] and in experiment [2] (setting [3]) were 8.49 and 8.21, respectively.
For `CC(C)(C)Cc1cnc2c(c1)[C@@H](NC[C@@H](O)[C@H](Cc1cc(F)cc(F)c1)NC(=O)OCc1cncs1)CC1(CCC1)O2` [compound 93], in that order: 8.31 and 7.10.
`CC(C)(C)Cc1cnc2c(c1)[C@@H](NC[C@@H](O)[C@H](Cc1cc(F)cc(F)c1)NC(=O)COCc1cncs1)CC1(CCC1)O2` [compound 94]: the figures for the pIC50 in experiment [1] and in experiment [2] (setting [3]) were 8.52 and 7.77, respectively.
With `CC(C)(C)Cc1cnc2c(c1)[C@@H](NC[C@@H](O)[C@H](Cc1cc(F)cc(F)c1)NC(=O)C(Cl)Cl)CC1(CCC1)O2` [compound 95], the pIC50 was 9.37 in experiment [1] and 7.78 in experiment [2] (setting [3]).
For `CC(C)(C)Cc1cnc2c(c1)[C@@H](NC[C@@H](O)[C@H](Cc1cc(F)cc(F)c1)NC(=O)C(F)(F)Cl)CC1(CCC1)O2` [compound 96], in that order: 9.64 and 7.36.
Turning to `CC(C)(C)Cc1cnc2c(c1)[C@@H](NC[C@@H](O)[C@H](Cc1cc(F)cc(F)c1)NC(=O)C(C)(Cl)Cl)CC1(CCC1)O2` [compound 97], the negative logarithm of the IC50 (pIC50) in experiment [1] is 7.86; in experiment [2] (setting [3]), 6.41.
On to `CC(C)(C)Cc1cnc2c(c1)[C@@H](NC[C@@H](O)[C@H](Cc1ccc3c(c1)OCO3)NC(=O)C(C)(Cl)Cl)CC1(CCC1)O2` [compound 98], for which the pIC50 in experiment [1] was 6.27; in experiment [2] (HEK cells), 6.11.
`CC(C)(C)Cc1cnc2c(c1)[C@@H](NC[C@@H](O)[C@H](Cc1ccc3c(c1)OCO3)NC(=O)C(F)(F)Cl)CC1(CCC1)O2` [compound 99]: the figures for the pIC50 in experiment [1] and in experiment [2] (setting [3]) were 7.23 and 6.50, respectively.
Take `CC(C)(C)Cc1cnc2c(c1)[C@@H](NC[C@@H](O)[C@H](Cc1ccc3c(c1)OCO3)NC(=O)C(Cl)Cl)CC1(CCC1)O2` [compound 100]: the pIC50 in experiment [1] is 7.90; in experiment [2] (HEK cells) it was 7.15.
As for `CC(C)(C)Cc1cnc2c(c1)[C@@H](NC[C@@H](O)[C@H](Cc1ccc3c(c1)OCO3)NC(=O)OCc1cncs1)CC1(CCC1)O2` [compound 101], the pIC50 in experiment [1] was 6.80; in experiment [2] (HEK cells) it was 5.73.
`COC(C)C(=O)NC(Cc1cc(F)cc(F)c1)C(O)CNC1CC2(CCC2)Oc2ncc(CC(C)(C)C)cc21` [compound 102, (R)—N-((2S,3R)-1-(3,5-difluorophenyl)-3-hydroxy-4-((S)-6-neopentyl-3,4-dihydrospiro[cyclobutane-1,2H-pyrano[2,3-b]pyridin-4-ylamino)butan-2-yl)-2-methoxypropanamide]: the negative logarithm of the IC50 (pIC50) in experiment [1] is 8.28; in experiment [2] (HEK cells), 7.97.
As to `COC(C)C(=O)NC(Cc1cc(F)cc(F)c1)C(O)CNC1CC2(CCC2)Oc2ncc(CC(C)(C)C)cc21` [compound 103, (S)—N-((2S,3R)-1-(3,5-difluorophenyl)-3-hydroxy-4-((S)-6-neopentyl-3,4-dihydrospiro[cyclobutane-1,2H-pyrano[2,3-b]pyridin-4-ylamino)butan-2-yl)-2-methoxypropanamide], the pIC50 is 8.00 in experiment [1] and 7.57 in experiment [2] (HEK cells).
Turning to `CC(C)(C)Cc1cnc2c(c1)[C@@H](NC[C@@H](O)[C@H](Cc1cc(F)cc(F)c1)NC(=O)CCl)CC1(CCC1)O2` [compound 104], the pIC50 in experiment [1] is 8.43; in experiment [2] (HEK cells), 7.73.
Consider `CC(C)(C)Cc1cnc2c(c1)[C@@H](NC[C@@H](O)[C@H](Cc1cccc(F)c1)NC(=O)C(Cl)Cl)CC1(CCC1)O2` [compound 105], for which the pIC50 is 8.39 in experiment [1] and 7.53 in experiment [2] (setting [3]).
For `CC(C)(C)Cc1cnc2c(c1)[C@@H](NC[C@@H](O)[C@H](Cc1cccc(F)c1)NC(=O)C(C)(Cl)Cl)CC1(CCC1)O2` [compound 106], in that order: 7.17 and 6.08.
For `CC(C)(C)Cc1cnc2c(c1)[C@@H](NC[C@@H](O)[C@H](Cc1cccc(F)c1)NC(=O)CCl)CC1(CCC1)O2` [compound 107], in that order: 8.29 and 7.65.
With `CC(C)(C)Cc1cnc2c(c1)[C@@H](NC[C@@H](O)[C@H](Cc1cccc(F)c1)NC(=O)C(F)(F)Cl)CC1(CCC1)O2` [compound 108], the pIC50 in experiment [1] is 8.30; in experiment [2] (setting [3]), 7.04.
For `CC(=O)N[C@@H](Cc1cccc(F)c1C)[C@H](O)CN[C@H]1CC2(CCC2)Oc2ncc(CC(C)(C)C)cc21` [compound 109], in that order: 7.14 and 6.50.
As for `CNc1nc(CC(C)(C)C)cc2c1OC1(CCC1)C[C@@H]2NC[C@@H](O)[C@H](Cc1ccccc1)NC(=O)COC` [compound 112], the pIC50 in experiment [1] was 7.52; in experiment [2] (setting [3]) it was 8.05.
With `COCC(=O)N[C@@H](Cc1ccccc1)[C@H](O)CN[C@H]1CC2(CCC2)Oc2c1cc(CC(C)(C)C)nc2N(C)C` [compound 113], the figures for the pIC50 in experiment [1] and in experiment [2] (setting [3]) were 7.58 and 6.30, respectively.
Take `CC(=O)N[C@@H](Cc1ccc(F)cc1)[C@H](O)CN[C@H]1C[C@@]2(CC[C@@H]2O)Oc2ncc(CC(C)(C)C)cc21` [compound 114]: the figures for the pIC50 in experiment [1] and in experiment [2] (setting [3]) were 5.80 and 6.04, respectively.
Regarding `CC(=O)N[C@@H](Cc1ccc(F)cc1)[C@H](O)CN[C@@H]1C[C@]2(CC[C@H]2O)Oc2ncc(CC(C)(C)C)cc21` [compound 115], the pIC50 in experiment [1] is 5.16; in experiment [2] (setting [3]), 5.26.
For the compound `CC(=O)N[C@@H](Cc1ccc(F)cc1)[C@H](O)CN[C@H]1C[C@@]2(CC[C@H]2O)Oc2ncc(CC(C)(C)C)cc21` [compound 116], the results for the pIC50 in experiment [1] and in experiment [2] (setting [3]) were 6.93 and 6.83, respectively.
For `CC(=O)N[C@@H](Cc1ccc(F)cc1)[C@H](O)CN[C@H]1C[C@]2(CC[C@@H]2O)Oc2ncc(CC(C)(C)C)cc21` [compound 117], in that order: 8.11 and 7.47.
Regarding `CC(=O)N[C@@H](Cc1ccc(F)cc1)[C@H](O)CN[C@H]1C[C@]2(CC[C@H]2O)Oc2ncc(CC(C)(C)C)cc21` [compound 118], the pIC50 was 8.04 in experiment [1] and 7.55 in experiment [2] (setting [3]).
For the compound `COCC(=O)N[C@@H](Cc1ccc2c(c1)OCO2)[C@H](O)CN[C@H]1CC2(CCC2)Oc2cnc(CC(C)(C)C)cc21` [compound 119], the pIC50 is 6.69 in experiment [1] and 6.90 in experiment [2] (setting [3]).

Source of the values: patent US8163909B2, “Substituted hydroxyethyl amine compounds as beta-secretase modulators and methods of use” (Amgen Inc., priority 2007, dated 2012).
